{"source": "patent US20260053931A1", "about": "“MDM2 TARGETING PROTACS” (THE WISTAR INSTITUTE OF ANATOMY AND BIOLOGY, priority 2023, published 2026)", "key": {"VHL": {"molecular_target": "VHL (Homo sapiens, UniProt P40337)", "sequence (P40337 whole entry)": "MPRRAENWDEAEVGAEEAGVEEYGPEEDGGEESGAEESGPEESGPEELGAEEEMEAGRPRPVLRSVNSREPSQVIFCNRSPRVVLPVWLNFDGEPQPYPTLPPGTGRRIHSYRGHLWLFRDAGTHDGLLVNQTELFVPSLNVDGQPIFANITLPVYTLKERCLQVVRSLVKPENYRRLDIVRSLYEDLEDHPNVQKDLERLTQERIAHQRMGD", "sequence (Q15370 whole entry partner)": "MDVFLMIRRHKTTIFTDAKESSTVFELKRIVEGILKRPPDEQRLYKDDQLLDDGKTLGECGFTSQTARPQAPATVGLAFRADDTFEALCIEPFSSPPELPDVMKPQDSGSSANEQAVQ", "sequence (Q15369 whole entry partner)": "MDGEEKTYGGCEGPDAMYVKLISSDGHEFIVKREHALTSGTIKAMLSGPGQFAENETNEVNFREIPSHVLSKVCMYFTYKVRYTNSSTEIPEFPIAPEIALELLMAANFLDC", "assay": "HTRF binding assay for VHL (Table 2)", "source_text": "Biochemical assays in 384-well format have established to assess the binding of newly synthesized PROTACs to the appropriate E3 ligase using HTRF technology. In these assays an anti-HIS antibody conjugated to terbium was used as the donor fluor, and either a Cy5 labeled small molecule probe, or a biotinylated peptide that is bound to a streptavidin acceptor."}, "[1]": {"test_system": "MDA-MB-231 and MDA-MB-436 TNBC xenografts", "assay": "TNBC xenografts in nude mice", "assay_type": "in vivo, mouse", "protocol": "A-G. MDA-MB-231 and MDA-MB-436 cells were injected (subcutaneous) into one flank of nude mice and allowed to form palpable tumors (approximately 80 mm^3). Mice (randomized into tumor-size matched groups) were treated (intraperitoneal injection) with MDM2-PROTAC YX-02-030, RG7112D, or vehicle control at 50 mg/kg once daily for 14 days (treatment start, green arrow and stop, red arrow). Kaplan-Meier survival analysis (A) and tumor volume (B; individual, left and averaged, right) were evaluated overtime. C-G, After 72 hr of treatment, tumors (n=3/group; −, vehicle control) were harvested and protein expression evaluated by Western blotting (C), Annexin-V positivity (D), Caspase-3 activity (E), apoptotic subG1 DNA content (F), and viability by Trypan Blue dye exclusion (G). Mean±SD (B (right), D-G). Log-rank tests for A, and longitudinal tumor growth analysis using 2-way ANOVA with Bonferroni correction for B; P-values indicated. *P<0.0021 for D, *P<0.0001 for E, *P<0.0147 for F, and *P<0.0014 for G were determined using unpaired two-tailed t-tests, comparing PROTAC to vehicle control.\nPrior to testing YX-02-030 tumors in vivo, mouse liver microsome and pharmacokinetic (PK) studies were performed to determine its stability in vivo. […] Due to its stability in vivo, the effectiveness of YX-02-030 was then evaluated at killing TNBC tumors in mice. Xenografts of MDA-MB-231 and MDA-MB-436 TNBC cells grew to ˜80 mm^3, and then tumor size-matched mice were treated with YX-02-030, RG7112D control compound, or vehicle control. […] To confirm YX-02-030 was hitting its target (MDM2) in the TNBC tumors, tumors were harvested from a cohort of mice after 72 hours of YX-02-030 treatment. […] The toxicity of YX-2-228 was analyzed as compared to both the vehicle and YX-2-30. (FIGS. 25A & 25B)."}, "[2]": {"test_system": "MDA-MB-231 and MDA-MB-436 cells", "assay": "Mammosphere formation in 3D culture", "assay_type": "cell-based, human", "conditions": "each concentration tested, 72 hrs, compared to MDM2 inhibitors and vehicle", "protocol": "(§1) FIGS. 21A-21E show the apoptosis induction of p53-inactivated TNBC cells in 2D and 3D cultures by the MDM2-PROTAC YX-02-030. A-B. Colony formation assays (A. Triplicate, 12 days) and mammosphere formation (B. Triplicate 72 hrs) of MDA-MB-231 and MDA-MB-436 cells in the presence of the indicated compounds or DMSO control (−); representative pictures shown. C-E. Formed mammospheres of MDA-MB-231 and MDA-MB-436 cells were treated with the compounds indicated or DMSO control (−), and area (C. n=10 mammospheres, relative to pre-treatment area, 72 hr), real-time imaging (IncuCyte) and quantification of Caspase-3/7 activity (D. n=4-5 wells/compound), and survival/ATP assays (E. Quadruplicate, 72 hr) were performed; representative images shown; scale bar 300 m. Mean±SEM (A-C and E). For A, *P<0.0001 and **P<0.0001, comparing 1 M and 2 M PROTAC, respectively, to control compounds and DMSO vehicle control. For B, *P<0.0046, **P<0.0001, and ***P<0.0001, comparing 0.5 M, 1 M, and 2 M PROTAC, respectively, to control compounds and DMSO vehicle control. For C, *P<0.0001 and **P<0.0001, comparing 2 M and 4 M/6 M PROTAC, respectively, to control compounds and DMSO vehicle control. […]\n(§2) These were then evaluated in 3D culture as to when the YX-02-030 was effective at preventing TNBC cell mammosphere formation and eliminating already formed mammospheres. […]"}, "[3]": {"test_system": "TNBC patient mammospheres", "assay": "Patient TNBC 3D mammosphere cultures", "assay_type": "cell-based, human", "protocol": "FIGS. 27A-27E show TP53 mutant TNBC patient-derived explants undergo apoptosis following treatment with the MDM2-PROTAC YX-02-030. A. TP53 sequenced in five fresh TNBC patient samples and used in explant and 3D mammosphere cultures. B-C. TNBC patient-derived explants were treated with the compounds indicated and Western blotting (B) and immunohistochemistry (IHC) of FFPE sections for cleaved Caspase-3 (C, n=3 paired patient samples) were performed. Representative images of H&E and cleaved Caspase-3 (CC3) IHC shown, including normal breast epithelium treated with MDM2-PROTAC YX-02-030; scale bar 300 m. D-E. Mammosphere cultures were established from TNBC patient samples, treated with the indicated compounds, and live-cell detection of Caspase-3/7 activity (D, quadruplicate) and mammosphere survival/ATP production (E, quadruplicate) were measured.\nFor three of the patient TNBC tumor samples there was enough tissue to also establish 3D mammosphere cultures, and for one of these patients, normal breast epithelial tissue was also received that generated loose cell clusters."}, "Mdm2-VHL": {"molecular_target": "Mdm2-VHL (Homo sapiens, UniProt P40337+Q00987)", "sequence (Q00987 whole entry)": "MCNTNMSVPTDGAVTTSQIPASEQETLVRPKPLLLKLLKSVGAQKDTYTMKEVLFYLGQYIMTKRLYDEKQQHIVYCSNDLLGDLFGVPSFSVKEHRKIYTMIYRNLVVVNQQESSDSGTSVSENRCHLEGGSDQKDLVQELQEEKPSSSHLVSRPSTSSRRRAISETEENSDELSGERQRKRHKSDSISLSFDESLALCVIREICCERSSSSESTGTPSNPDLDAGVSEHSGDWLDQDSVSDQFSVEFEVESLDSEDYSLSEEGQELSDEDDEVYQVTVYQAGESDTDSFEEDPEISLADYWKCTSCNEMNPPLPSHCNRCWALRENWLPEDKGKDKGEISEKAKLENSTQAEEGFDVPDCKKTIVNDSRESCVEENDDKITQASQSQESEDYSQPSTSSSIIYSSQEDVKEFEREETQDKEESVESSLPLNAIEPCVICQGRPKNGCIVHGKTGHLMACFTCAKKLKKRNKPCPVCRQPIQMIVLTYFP", "sequence (P40337 whole entry)": "as the sequence (P40337 whole entry) above", "sequence (Q15370 whole entry partner)": "as the sequence (Q15370 whole entry partner) above", "sequence (Q15369 whole entry partner)": "as the sequence (Q15369 whole entry partner) above", "assay": "AlphaScreen ternary complex formation", "assay_type": "binding", "conditions": "GST-MDM2 and HIS-VHL", "source_text": "A. Chemical structure of MDM2-PROTAC. B-C. MDM2:p53 and MDM2:VHL-HIF1α peptide binding inhibition determined by homogeneous time-resolved fluorescence (HTRF, triplicate, mean±SEM, B) and surface plasmon resonance (SPR, triplicate, mean±SD, C. Binding assays by the indicated compounds. Graphical data is representative of 3 separate experiments. D. AlphaScreen of ternary complex using GST-MDM2 and HIS-VHL; mean±SD. E-F. Western blot analysis for the proteins indicated following a dose-titration (E, 16 hr) and time course (F, 6 μM) with the PROTAC or vehicle control (DMSO, −) in MDA-MB-231 (p53-mutant) and MDA-MB-436 (p53-delete) cells. G-K. Western blot analysis for the proteins indicated following treatment with the MDM2-PROTAC and/or the neddylation activating enzyme inhibitor MLN4924 G."}, "MDA-MB-231 mammospheres": {"test_system": "MDA-MB-231 mammospheres", "assay": "Area of formed mammospheres, MDA-MB-231", "assay_type": "cell-based, human", "conditions": "MDA-MB-231, 3-fold lower concentration than the MDM2 inhibitors, 72 hr", "protocol": "as §1, §2"}, "[4]": {"conditions": "50 mg/kg IP once daily for 14 days, compared to control mice"}, "[5]": {"conditions": "mammospheres from three patient tumors"}}}
{"compound": "CCOc1cc(C(C)(C)C)ccc1C1=N[C@](C)(c2ccc(Cl)cc2)[C@](C)(c2ccc(Cl)cc2)N1C(=O)N1CCN(CC(=O)NCCCNC(=O)COc2ccc3c(c2)CN(C(=O)[C@H](NC(=O)[C@@H](C)NC)C(C)(C)C)[C@@H](C(=O)N[C@H]2CCCc4ccccc42)C3)CC1", "note": "[YX-02-228, (R)-7-(2-((3-(2-(4-((4R,5S)-2-(4-(tert-butyl)-2-ethoxyphenyl)-4,5-bis(4-chlorophenyl)-4,5-dimethyl-4,5-dihydro-1H-imidazole-1-carbonyl)piperazin-1-yl)acetamido)propyl)amino)-2-oxoethoxy)-2-((R)-3,3-dimethyl-2-((R)-2-(methylamino)propanamido)butanoyl)-N-((S)-1,2,3,4-tetrahydronaphthalen-1-yl)-1,2,3,4-tetrahydroisoquinoline-3-carboxamide]", "values": [{"measurement": "IC50", "setting": "VHL", "value": "> 10", "unit": "µM"}]}
{"compound": "CCOc1cc(C(C)(C)C)ccc1C1=N[C@](C)(c2ccc(Cl)cc2)[C@](C)(c2ccc(Cl)cc2)N1C(=O)N1CCN(CC(=O)NCCOCCOCCOCC(=O)N[C@H](C(=O)N2C[C@H](O)C[C@H]2C(=O)NCc2ccc(-c3scnc3C)cc2)C(C)(C)C)CC1", "note": "(racemic) [YX-02-030]", "values": [{"measurement": "mouse survival", "setting": "[1]; [4]", "value": "significantly extended mouse survival"}, {"measurement": "tumor volume", "setting": "[1]; [4]", "value": "decreased tumor volume"}, {"measurement": "mouse weight", "setting": "[1]; nude mice, 50 mg/kg IP, 14 consecutive days", "value": "mouse weight was maintained"}, {"measurement": "MDM2 protein in tumors", "setting": "[1]; tumors harvested after 72 hours of treatment", "value": "loss of MDM2 protein"}, {"measurement": "mammosphere formation", "setting": "[2]", "value": "significantly fewer mammospheres formed"}, {"measurement": "Caspase-3/7 activity", "setting": "[3]; [5]", "value": "significantly increased Caspase-3/7 activity"}, {"measurement": "mammosphere survival", "setting": "[3]; [5]", "value": "reduced survival"}, {"measurement": "effect on normal breast epithelial clusters", "setting": "[3]; normal breast epithelial tissue of one patient", "value": "remained largely unaffected"}, {"measurement": "ternary complex formation", "setting": "Mdm2-VHL", "value": "efficiently form a ternary complex"}, {"measurement": "reduction of mammosphere area", "setting": "MDA-MB-231 mammospheres", "value": 49.5, "unit": "%"}]}
